Data from patent US20240083886A1, “HETEROCYCLIC GLP-1 AGONISTS” (Gasherbrum Bio, Inc., priority 2020, published 2024).

Molecular target: GLP-1 Receptor (Homo sapiens, UniProt P43220)
Test: GLP-1R agonist cAMP stimulation assay
Format: cell-based
Settings: not given
In short: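 HEK293/CRE-Luc cells stably expressing GLP-1R, 1000 cells/well in DPBS with 0.5 mM IBMX and 0.1% BSA, exposed to ½-log compound dilutions 30 min at 37 °C. cAMP measured by HTRF (665/615 nm) after 1 h at room temperature. % activity normalised between vehicle and MAX controls.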

Chain of GLP-1 Receptor (P43220 24-463, species assumed): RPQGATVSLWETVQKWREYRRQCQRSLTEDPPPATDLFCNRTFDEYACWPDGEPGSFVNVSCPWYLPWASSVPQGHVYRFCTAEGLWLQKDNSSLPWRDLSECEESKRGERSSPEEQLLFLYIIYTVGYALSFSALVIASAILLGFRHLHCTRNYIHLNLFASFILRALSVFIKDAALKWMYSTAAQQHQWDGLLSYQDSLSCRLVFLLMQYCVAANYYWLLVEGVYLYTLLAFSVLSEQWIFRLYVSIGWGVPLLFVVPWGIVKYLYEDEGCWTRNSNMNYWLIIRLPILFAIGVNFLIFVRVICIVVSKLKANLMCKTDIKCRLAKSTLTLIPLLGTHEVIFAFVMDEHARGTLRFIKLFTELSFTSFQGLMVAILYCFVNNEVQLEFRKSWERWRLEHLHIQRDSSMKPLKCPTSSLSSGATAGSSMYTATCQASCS

| EC50 [nM] | SMILES |
| --- | --- |
| 0.17 | FC(F)(F)c1nnc(-c2cnc3c(c2)nc(CN2CCC(Oc4ccnc(Cc5ccc(Cl)cc5)n4)CC2)n3C[C@@H]2CCO2)[nH]1 [Compound 120a, 2-[(4-chlorophenyl)methyl]-4-({1-[(3-{[(2S)-oxetan-2-yl]methyl}-6-[5-(trifluoromethyl)-4H-1,2,4-triazol-3-yl]-3H-imidazo[4,5-b]pyridin-2-yl)methyl]piperidin-4-yl}oxy)pyrimidine] |
| 3.3 | COCc1nnc(-c2cc3nc(CN4CCC(Oc5cccc(Cc6ccc(Cl)cc6F)n5)CC4)n(C[C@@H]4CCO4)c3cn2)[nH]1 [Compound 183a, 2-[(4-chloro-2-fluorophenyl)methyl]-6-{[1-({6-[5-(methoxymethyl)-4H-1,2,4-triazol-3-yl]-3-{[(2S)-oxetan-2-yl]methyl}-3H-imidazo[4,5-c]pyridin-2-yl}methyl)piperidin-4-yl]oxy}pyridine] |

Same assay, conditions: HEK293/GLP1R/CRE-LUC cells, cAMP dynamic 2 Kit (Cisbio), 30 min incubation at 37° C.; read-out: EC50

| SMILES | EC50 [nM] |
| --- | --- |
| COc1cncc(-c2cc3nc(CN4CCC(Oc5cccc(Cc6ccc(Cl)cc6F)n5)CC4)n(C[C@@H]4CCO4)c3cn2)n1 [Compound 187a, 2-(2-{[4-({6-[(4-chloro-2-fluorophenyl)methyl]pyridin-2-yl}oxy)piperidin-1-yl]methyl}-3-{[(2S)-oxetan-2-yl]methyl}-3H-imidazo[4,5-c]pyridin-6-yl)-6-methoxypyrazine] | > 300 |
| Fc1cc(Cc2cccc(OC3CCN(Cc4nc5cc(-c6nnc(C(F)(F)F)[nH]6)ncc5n4C[C@@H]4CCO4)CC3)n2)ccc1Cl [Compound 185a, 2-[(4-chloro-3-fluorophenyl)methyl]-6-({1-[(3-{[(2S)-oxetan-2-yl]methyl}-6-[5-(trifluoromethyl)-4H-1,2,4-triazol-3-yl]-3H-imidazo[4,5-c]pyridin-2-yl)methyl]piperidin-4-yl}oxy)pyridine] | 0.37 |
| Cc1ccc(C(=O)Nc2ccc3c(c2)nc(CN2CCC(Oc4ccnc(Cc5ccc(Cl)cc5)n4)CC2)n3C[C@@H]2CCO2)cn1 [Compound 104a, N-(2-{[4-({2-[(4-chlorophenyl)methyl]pyrimidin-4-yl}oxy)piperidin-1-yl]methyl}-1-{[(2S)-oxetan-2-yl]methyl}-1H-1,3-benzodiazol-5-yl)-6-methylpyridine-3-carboxamide] | 1.1 |
| Fc1cnc(Cc2ccc(Cl)cc2)nc1OC1CCN(Cc2nc3cc(-c4nnc(C(F)(F)F)[nH]4)ncc3n2C[C@@H]2CCO2)CC1 [Compound 149a, 2-[(4-chlorophenyl)methyl]-5-fluoro-4-({1-[(3-{[(2S)-oxetan-2-yl]methyl}-6-[5-(trifluoromethyl)-4H-1,2,4-triazol-3-yl]-3H-imidazo[4,5-c]pyridin-2-yl)methyl]piperidin-4-yl}oxy)pyrimidine] | 0.056 |

Results, then the compound that gave them:

| EC50 [nM] | SMILES |
| --- | --- |
| 0.03 | Fc1cc(Cl)ccc1Cc1nccc(OC2CCN(Cc3nc4cc(-c5nnc(C(F)(F)F)[nH]5)ncc4n3C[C@@H]3CCO3)CC2)n1 [Compound 138a, 2-[(4-chloro-2-fluorophenyl)methyl]-4-({1-[(3-{[(2S)-oxetan-2-yl]methyl}-6-[5-(trifluoromethyl)-4H-1,2,4-triazol-3-yl]-3H-imidazo[4,5-c]pyridin-2-yl)methyl]piperidin-4-yl}oxy)pyrimidine] |
| 0.048 | Fc1cc(Cl)ccc1Cc1nccc(OC2CCN(Cc3nc4cc(-c5nnc(C(F)(F)F)[nH]5)cnc4n3C[C@@H]3CCO3)CC2)n1 [Compound 142a, 2-[(4-chloro-2-fluorophenyl)methyl]-4-({1-[(3-{[(2S)-oxetan-2-yl]methyl}-6-[5-(trifluoromethyl)-4H-1,2,4-triazol-3-yl]-3H-imidazo[4,5-b]pyridin-2-yl)methyl]piperidin-4-yl}oxy)pyrimidine] |
| 0.35 | Fc1cc(Cl)ccc1Cc1ccc(F)c(OC2CCN(Cc3nc4cc(-c5nnc(C(F)(F)F)[nH]5)ncc4n3C[C@@H]3CCO3)CC2)n1 [Compound 164a, 6-[(4-chloro-2-fluorophenyl)methyl]-3-fluoro-2-({1-[(3-{[(2S)-oxetan-2-yl]methyl}-6-[5-(trifluoromethyl)-4H-1,2,4-triazol-3-yl]-3H-imidazo[4,5-c]pyridin-2-yl)methyl]piperidin-4-yl}oxy)pyridine] |
